# From PMC6994123, “A mosquito juvenile hormone binding protein (mJHBP) regulates the activation of innate immune defenses and hemocyte development” (PLoS Pathogens, 2020)
# Tests used:
# [1] = target: T1, mJHBP (Aedes aegypti, UniProt Q16Y94); assay: isothermal titration calorimetry, single-site fit; type: binding; details: read-out: Ka
# T1 construct: gene 5570847; two OBP domains; gel filtration, Q-Sepharose and Phenyl-Sepharose purified; probably mature protein
# T1 sequence (Q16Y94 25-311): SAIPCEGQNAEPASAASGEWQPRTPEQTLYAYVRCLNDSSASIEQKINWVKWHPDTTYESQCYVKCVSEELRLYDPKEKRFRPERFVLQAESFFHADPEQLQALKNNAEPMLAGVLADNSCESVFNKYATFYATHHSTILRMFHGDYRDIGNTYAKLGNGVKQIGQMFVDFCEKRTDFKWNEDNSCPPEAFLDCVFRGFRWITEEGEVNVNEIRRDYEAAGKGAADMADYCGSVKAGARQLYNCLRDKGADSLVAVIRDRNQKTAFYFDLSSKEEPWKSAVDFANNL
# Source text: isothermal titration calorimetry, single-site fit on mJHBP | wild type mJHBP.
# [2] = target: T2, mJHBP (Aedes aegypti, UniProt Q16Y94, Y152F); assay: isothermal titration calorimetry, single-site fit; type: binding; details: read-out: Ka (converted)
# T2 construct: gene 5570847; two OBP domains; gel filtration, Q-Sepharose and Phenyl-Sepharose purified; probably mature protein
# T2 sequence (Q16Y94 25-311 Y152F): T1 sequence (Q16Y94 25-311)
# Source text: isothermal titration calorimetry, single-site fit on mJHBP | Y129F mutant.
smiles,measurement,setting,value
"COC(=O)/C=C(\C)CC/C=C(\C)CC[C@H]1OC1(C)C [JH III, juvenile hormone III]",Kd,[1],100 nM
same,Kd,[2],1090 nM
